These results are taken from US7101841B2, “Carbohydrate-specific peptides which have a strong affinity and preparations method thereof” (Korea Institute of Science and Technology, priority 2001, dated 2006).

Assay [1] deals with sLeX. The assay can be described thus: BIAcore measurement of binding capacity of peptides on sLeX-BSA fixed CM5 chip. As to the method:
To measure the binding capacity of peptides, BIAcore was used. CM5 made by gold and protruded with CM-dextran layer and carboxylic acid group was used as a chip. BSA (Oxford Glyco Science, USA) binding with sLeX was used as a ligand for fixing.
At first, chip surface was stabilized with 100 mM HEPES buffer solution (pH 8.0), and activated with the mixture of 0.4 M EDC (1-ethyl-3-[3′-dimethylaminopropyl]carbodiimide) and 0.1 M NHS (N-hydroxysuccunimide). And then, sodium acetate buffer(10 mM, pH 4.0) containing 0.05 mg/ml of sLeX-BSA or BSA was injected and fixed onto the surface of CM5 chip until the value of RU reached to 6,000. Chip surface remaining active state was substituted with 1.0 M ethanolamine. Target molecules were bound to CM5 chip, and binding buffer (0.01 M HEPES, […], 3 mM EDTA, 0.005% polysorbate 20, pH 7.4) was flowed on the chip surface for equilibration, and finally, bindng capacity was determined by flowing binding buffer containing peptides according to the concentrations. At that time, peptides were combined with their targets with different speed and slope according to the affinity of peptides and target molecules and the affinity between target molecules was measured from the each result. […]
A general note: In SPR one partner is held on a chip, and binding of the other changes the refractive index at the surface.

Assay [2] concerns sLeX. Kind of assay: Peptide phage library biopanning against sLeX-BSA. Particulars: after three rounds of biopanning. In kind it is binding. The procedure:
As described above, in order to obtain molecules having strong binding capacity to carbohydrates using repetitive structure of peptide, sialyl Lewis X (sLeX) existing in tumor cells or inflammation response cells was selected as a target, and a peptide binding to the sLeX well was selected by using peptide phage library and biopanning method. Particularly, sLeX-BSA(Oxford Glycoscience) was added into 0.1 M NaHCO3(pH 8.6) buffer solution until the concentration reached to 100 μg/ml. 150 μl of the above solution(sLeX-BSA 0.1 M NaHCO3) was loaded into one well of 96-well plate, and 150 μl of BSA 0.1 M NaHCO3(pH 8.6) was also loaded into the other well. The well plate was shaken to soak completely, and left for overnight at 4° C. The solution in 96-well plate was washed, followed by adding 200 μl of blocking solution(0.1 M ethanol amine, 0.1 M NaHCO3, pH 8.6) into the wells, and then the plate was left for overnight at 4° C. After blocking solution was removed from the 96-well plate, the plate was washed with 200 μl of TBS-T(50 mM Tris-HCl, pH 7.5, 150 mM NaCl, 0.1% [v/v] Tween-20). […]
180 μl of extraction solution was loaded into 3 ml of ER2537 culture solution(OD600=0.2–0.3) and cultured for 4.5 hours at 37° C. while shaking with 250 rpm. […] The amplified phage obtained above was diluted with various concentrations, and the proper concentration was calculated as follows. […]

With AHWIPRYSSPAT [monomer], the Kd at sLeX [1] (BIAcore, sLeX-BSA fixed on CM5 chip, read-out: Kp against sLeX) stood at 25.4 mM. Also, the “strength of binding converted into the height of sensorgram” value in the assay with sLeX [1] (peptide flowed at 62.5 μM, sLeX-BSA fixed chip, FIG. 1) is listed as 16 RU.

For the substance “peptide represented by the SEQ. ID NO.1: peptide composed of 12 amino acids selected by phage display for binding to sLeX (AHWIPRYSSPAT; synthetic peptide which have a strong affinity to carbohydrate)”, the “binding capacity to sLeX relative to other selected peptides” value in the assay with sLeX [2] was “better than that of the other peptides”.
